From the NIST ThermoML archive (doi:10.1016/j.jct.2019.02.025)

Legend:
[1] = for mass density / kinematic viscosity: 101.33 kPa, Liquid; for mass density: Vibrating tube method; for surface tension liquid-gas / kinematic viscosity: Surface laser light scattering (SLLS)
[2] = refractive index (Na D-line) (dimensionless); conditions: 101.33 kPa, Liquid, Standard Abbe refractometry

CCCCCCC(=O)OCC [ethyl heptanoate]
Conditions	kinematic viscosity [m2/s]	mass density [kg/m3]	refractive index	surface tension liquid-gas [mN/m]
[1], 293.15 K	–	869.42	–	–
[1], 298.25 K	1.33e-06	–	–	24.88
[1], 303.15 K	–	860.36	–	–
[1], 313.15 K	–	851.32	–	–
[1], 323.03 K	9.55e-07	–	–	23.07
[1], 323.15 K	–	842.26	–	–
[1], 333.15 K	–	833.07	–	–
[1], 343.15 K	–	824.1	–	–
[1], 347.8 K	7.3e-07	–	–	20.71
[1], 353.15 K	–	814.99	–	–
[1], 363.15 K	–	805.81	–	–
[1], 372.91 K	5.73e-07	–	–	18.61
[1], 373.15 K	–	796.55	–	–
[1], 383.15 K	–	787.24	–	–
[1], 393.15 K	–	777.81	–	–
[1], 397.51 K	4.7e-07	–	–	16.27
[1], 403.15 K	–	768.3	–	–
[1], 413.15 K	–	758.65	–	–
[1], 421.88 K	3.95e-07	–	–	14.43
[1], 423.15 K	–	748.89	–	–
[1], 433.15 K	–	738.95	–	–
[1], 443.15 K	–	728.84	–	–
[1], 448 K	3.39e-07	–	–	12.31
[2], 278.15 K	–	–	1.42006	–
[2], 283.15 K	–	–	1.41784	–
[2], 288.15 K	–	–	1.41562	–
[2], 293.15 K	–	–	1.41341	–
[2], 298.15 K	–	–	1.41119	–
[2], 303.15 K	–	–	1.40896	–
[2], 308.15 K	–	–	1.40673	–
[2], 313.15 K	–	–	1.40445	–
[2], 318.15 K	–	–	1.40216	–
[2], 323.15 K	–	–	1.39988	–
[2], 328.15 K	–	–	1.39761	–
[2], 333.15 K	–	–	1.39535	–
[2], 338.15 K	–	–	1.39311	–
[2], 343.15 K	–	–	1.39088	–
[2], 348.15 K	–	–	1.38866	–
[2], 353.15 K	–	–	1.38645	–
[2], 358.15 K	–	–	1.38421	–

CCCCCC(=O)OCC [ethyl hexanoate]
Conditions	kinematic viscosity [m2/s]	mass density [kg/m3]	refractive index	surface tension liquid-gas [mN/m]
[1], 293.15 K	–	871.07	–	–
[1], 298.26 K	1.13e-06	–	–	24.65
[1], 303.15 K	–	861.61	–	–
[1], 313.15 K	–	851.2	–	–
[1], 323.06 K	8.14e-07	–	–	22.27
[1], 323.15 K	–	842.71	–	–
[1], 333.15 K	–	833.25	–	–
[1], 343.15 K	–	823.72	–	–
[1], 348.04 K	6.25e-07	–	–	20.08
[1], 353.15 K	–	814.13	–	–
[1], 363.15 K	–	804.45	–	–
[1], 372.96 K	5e-07	–	–	17.81
[1], 373.15 K	–	794.69	–	–
[1], 383.15 K	–	784.83	–	–
[1], 393.15 K	–	774.87	–	–
[1], 397.73 K	4.11e-07	–	–	15.68
[1], 403.15 K	–	764.77	–	–
[1], 413.15 K	–	754.53	–	–
[1], 422.94 K	3.46e-07	–	–	13.51
[1], 423.15 K	–	744.07	–	–
[1], 447.88 K	3.03e-07	–	–	11.43
[2], 278.15 K	–	–	1.41438	–
[2], 283.15 K	–	–	1.4121	–
[2], 288.15 K	–	–	1.40982	–
[2], 293.15 K	–	–	1.40753	–
[2], 298.15 K	–	–	1.40525	–
[2], 303.15 K	–	–	1.40295	–
[2], 308.15 K	–	–	1.40063	–
[2], 313.15 K	–	–	1.39829	–
[2], 318.15 K	–	–	1.39594	–
[2], 323.15 K	–	–	1.3936	–
[2], 328.15 K	–	–	1.39128	–
[2], 333.15 K	–	–	1.38897	–
[2], 338.15 K	–	–	1.38667	–
[2], 343.15 K	–	–	1.38438	–
[2], 348.15 K	–	–	1.3821	–
[2], 353.15 K	–	–	1.37983	–
[2], 358.15 K	–	–	1.37754	–
